Drawing on PubChem BioAssay (NCI), this text covers GI50 and TGI for 9 compounds.

Broadly, the GI50 is the concentration at which growth is held to half of that of the control. A word on the TGI: it is the concentration giving total growth inhibition. High values mean lower sensitivity of the cells, low ones greater sensitivity of the cells.

Test in all cases: DTP human tumour cell line panel, 48 h
Test [1] relates to 786-0 renal.
The test system of test [2] is SK-OV-3 ovarian.
Test [3] concerns A498 renal.
Test [4] has as its system SR leukemia.
The subject of test [5] is NCI-H460 lung.
For test [6], the system named is HCT-15 colon.
Test [7] concerns M14 melanoma.
Test [8] deals with COLO 205 colon.
The subject of test [9] is MDA-MB-231 breast.
Test [10] has as its system NCI-H23 lung.

Values joined by “and” are separate entries in the source; they are usually repeats but may differ in a detail not shown here. Equal entries are not always repeated.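 Assay format: 96-well plates, 48-hour exposure. GI50 = concentration required for 50% inhibition of growth. TGI marks complete inhibition of growth.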

On to `COc1cc2c3c(n(CCCN)c(=O)c2cc1OC)-c1ccc([N+](=O)[O-])cc1C3=O`, for which the GI50 in test [1] was 1.66 µM; in test [2], 12.2 µM; in [3] it was 17.4 µM; in [4], 0.0731 µM; in test [5], 0.572 µM; in test [6], 5.83 µM. Further, the GI50 is 5.77 µM in [7], 10.1 µM in test [8], 18.9 µM in test [9] and 5.13 µM in [10]. Also, the TGI in test [1] worked out at 3.55 µM; in test [2] it was 28.7 µM; in test [3], 34.1 µM; in test [4], 10.4 µM; in test [5], 2.35 µM; in test [6], 19 µM. The TGI in test [7] was 19.4 µM; in test [8] it was 22.8 µM; in test [9] it was 34.6 µM; in test [10] it was 25.1 µM.

For `COc1ccc(C(=O)Cn2c(C(=O)c3ccccc3)nc3ccccc32)cc1`, the GI50 in test [1] is 9.31 µM; in test [2], 6.58 µM; in test [3], 2.9 µM; in test [4], 0.763 µM; in test [5], 3.39 µM; in test [6] it was 1.24 µM. Besides, the GI50 in test [7] is 2.93 µM; in test [8], 5.12 µM; in test [9] it was 7.38 µM; in test [10] it was 5.08 µM. Besides, the concentration for total growth inhibition (TGI) in test [1], in test [2], in [3], in [5], in test [6] and in test [7] was more than 100 µM in each case. Moreover, the concentration for total growth inhibition (TGI) in test [8], in [9] and in [10] was more than 100 µM each time.

For the compound `O=c1c2c([nH]c3nccn13)CCC2`, the TGI was more than 10 µM in [1]; more than 10 µM in test [2]; 8.91 µM in [3]; more than 10 µM in [4]; more than 10 µM in test [5]; more than 10 µM in test [6]. In addition, the total growth inhibition concentration (TGI) in test [7], in [8], in test [9] and in [10] was more than 10 µM in each case.

For the compound `O=C1CCc2c(sc3[nH]c(=S)n(-c4cc(C(F)(F)F)cc(C(F)(F)F)c4)c(=O)c23)C1`, the GI50 in [1] was 0.602 µM; in test [2], 0.947 µM; in test [3] it was 2.15 µM; in test [4] it was 0.516 µM; in test [5], 0.353 µM; in test [6], 0.338 µM. The GI50 in test [7] is 0.463 µM; in test [8] it was 0.258 µM; in test [9], 0.336 µM; in test [10], 0.346 µM. Also, the concentration for total growth inhibition (TGI) in test [1] is 10.5 µM; in test [2], 5.54 µM; in test [3] it was 7.44 µM; in test [4], more than 100 µM; in test [5], 2.03 µM; in [6], 1.36 µM. Further, the total growth inhibition concentration (TGI) stood at 11.9 µM in test [7], 0.668 µM in test [8], 1.45 µM in test [9] and 2.24 µM in test [10].

Consider `C1=C(c2ccccc2)C(N2CCOCC2)Oc2ccccc21` (stereo not drawn), for which the TGI was more than 100 µM in test [1]; more than 100 µM in test [2]; 92.3 µM in [3]; more than 100 µM in [4]; more than 100 µM in [5]; more than 100 µM in test [6]. Also, the total growth inhibition concentration (TGI) in test [7], in test [8], in [9] and in test [10] was more than 100 µM each time.

As for `O=C1NC(N/N=C\C(O)C(O)C(O)C(O)CO)=N/C1=C/c1ccccc1` (stereo not drawn), the GI50 is 57.5 µM and 19.3 µM and > 100 µM in test [1]; > 100 µM and 20.2 µM in test [2]; 45.2 µM and 15.8 µM and > 100 µM in [3]; 51 µM and 16.3 µM and 99.4 µM in test [4]; 75.8 µM and 11.8 µM and > 100 µM in [5]; 51.9 µM and 12.7 µM and > 100 µM in test [6]. Moreover, the GI50 in test [7] was 52.6 µM and 15.4 µM and > 100 µM; in test [8] it was > 100 µM and 19.3 µM; in [9], 51.7 µM and 15.4 µM and > 100 µM; in test [10], > 100 µM and 19.3 µM. Moreover, the TGI in test [1] is > 100 µM and 41.3 µM; in test [2] it was > 100 µM and 37.8 µM; in [3] it was > 100 µM and 39.5 µM; in [4] it was > 100 µM and 51.2 µM; in test [5], > 100 µM and 25.6 µM; in [6], > 100 µM and 33.8 µM. Besides, the TGI is > 100 µM and 31.6 µM in test [7]; > 100 µM and 41.6 µM in [8]; > 100 µM and 33.4 µM in test [9]; > 100 µM and 36.5 µM in test [10].

As for `O=C(O)C[C@H](O)C[C@H](O)/C=C/c1c(C2CC2)nc2ccccc2c1-c1ccc(F)cc1`, the GI50 in test [1] was 21.6 µM and 2.86 µM; in test [2] it was 26.1 µM and 6.6 µM; in test [3] it was 0.202 µM and 0.036 µM; in test [4], 2.59 µM and 0.615 µM; in test [5] it was 21.2 µM and 4.92 µM; in test [6], 6.16 µM and 0.616 µM. Also, the GI50 in test [7] was 5.34 µM and 4.38 µM; in [8] it was 43.3 µM and 8.98 µM; in test [9], 0.287 µM and 0.0564 µM; in [10] it was 8.75 µM and 3.31 µM. Besides, the total growth inhibition concentration (TGI) in test [1] is more than 100 µM; in test [2], more than 100 µM; in test [3], 0.908 µM and 0.226 µM; in test [4] it was more than 100 µM; in test [5], more than 100 µM; in test [6], more than 100 µM. The TGI in test [7], in [8] and in [10] was more than 100 µM each time.

Take `C=CO/N=[N+](\[O-])N(CC)CC`: the TGI in test [1], in test [2], in test [3], in [4], in test [5] and in [6] was more than 100 µM in each case. Also, the TGI in test [7], in [8], in test [9] and in test [10] was more than 100 µM throughout.

Regarding `Fc1ccc(-c2ncn(C3CCNCC3)c2-c2ccnc(Oc3ccc4c(c3)OCO4)n2)cc1`, the GI50 in test [1] is more than 23.8 µM; in test [2], 14.9 µM; in test [3] it was 16 µM; in test [4] it was 13.6 µM; in test [5], more than 21.7 µM; in test [6], 21.1 µM. Moreover, the GI50 is 10.4 µM in test [7], 9.25 µM in [8], 10.5 µM in test [9] and more than 25 µM in test [10]. In addition, the concentration for total growth inhibition (TGI) in [1], in test [2], in test [3], in test [4], in test [5] and in [6] was more than 25 µM each time. In addition, the total growth inhibition concentration (TGI) in test [7], in test [8], in test [9] and in test [10] was more than 25 µM throughout.
